Experimental data reported in patent publication US12077503B2, “Substituted cyclic amides and their use as herbicides” (FMC CORPORATION, priority 2015, dated 2024).

How the values were obtained:
Format in all cases: in vivo
[1] = system: blackgrass (Alopecurus myosuroides); test: Test A postemergence; conditions: Alopecurus myosuroides, post-emergence, 240 h, Postemergence
Outline: (§1)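 Seeded soil received test chemicals as a preemergence directed spray, and seedlings at one to two leaves, 2–10 cm tall, received them postemergence, in a non-phytotoxic, surfactant-containing solvent mixture. Pots were held in a greenhouse for approximately 10 d, then rated for injury from 0, no effect, to 100, complete control.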

[2] = system: giant foxtail (Setaria faberii); test: Test A postemergence; conditions: Setaria faberi, post-emergence, 240 h, Postemergence
Outline: as §1

[3] = system: pigweed (Amaranthus retroflexus); test: Test A postemergence; conditions: Amaranthus retroflexus, post-emergence, 240 h, Postemergence
Outline: as §1

[4] = system: Galium (catchweed bedstraw, Galium aparine); test: Test A postemergence; conditions: Galium, post-emergence, 240 h, Postemergence
Outline: as §1

[5] = system: ryegrass, Italian (Italian ryegrass, Lolium multiflorum); test: Test A postemergence; conditions: Lolium multiflorum, post-emergence, 240 h, Postemergence
Outline: as §1

[6] = system: barnyardgrass (Echinochloa crus-galli); test: Test A postemergence; conditions: Echinochloa crus-galli, post-emergence, 240 h, Postemergence
Outline: as §1

[7] = system: wheat (Triticum aestivum); test: Test A postemergence; conditions: Triticum aestivum, post-emergence, 240 h, Postemergence
Outline: as §1

Kochia (Kochia scoparia) [8] = test: Test A postemergence; conditions: Bassia scoparia, post-emergence, 240 h, Postemergence
Outline: as §1

corn (Zea mays) = test: Test A postemergence; conditions: Zea mays, post-emergence, 240 h, Postemergence
Outline: as §1

[9] = system: ragweed (common ragweed, Ambrosia elatior); test: Test A postemergence; conditions: Ambrosia artemisiifolia, post-emergence, 240 h, Postemergence
Outline: as §1

[10] = system: giant foxtail (Setaria faberii); test: Test A preemergence; conditions: Setaria faberi, pre-emergence, 240 h, Preemergence
Outline: as §1

[11] = system: pigweed (Amaranthus retroflexus); test: Test A preemergence; conditions: Amaranthus retroflexus, pre-emergence, 240 h, Preemergence
[12] = system: ryegrass, Italian (Italian ryegrass, Lolium multiflorum); test: Test A preemergence; conditions: Lolium multiflorum, pre-emergence, 240 h, Preemergence
Outline: as §1

[13] = system: barnyardgrass (Echinochloa crus-galli); test: Test A preemergence; conditions: Echinochloa crus-galli, pre-emergence, 240 h, Preemergence
Outline: as §1

Kochia (Kochia scoparia) [14] = test: Test A preemergence; conditions: Bassia scoparia, pre-emergence, 240 h, Preemergence
Outline: as §1

[15] = system: ragweed (common ragweed, Ambrosia elatior); test: Test A preemergence; conditions: Ambrosia artemisiifolia, pre-emergence, 240 h, Preemergence
Outline: as §1

rice (Oryra sativa) = test: Test B flooded paddy test; conditions: Oryza sativa, 360 h, Flood, 250 g ai/ha; visually evaluated after 13 to 15 d; read-out: Plant response rating, Rice (0 to 100 scale where 0 is no effect and 100 is complete control)
Outline: (§2)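 Plants at 2-leaf stage flooded to 3 cm above soil, with compounds applied directly to paddy water and that depth maintained. Plants kept in greenhouse 13–15 d. Visual rating versus controls on a 0 (no effect) to 100 (complete control) scale.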

[16] = system: ducksalad (Heteranthera limosa); test: Test B flooded paddy test; conditions: Heteranthera limosa, 360 h, Flood, 250 g ai/ha; visually evaluated after 13 to 15 d; read-out: Plant response rating, Ducksalad (0 to 100 scale where 0 is no effect and 100 is complete control)
Outline: as §2

[17] = system: barnyardgrass (Echinochloa crus-galli); test: Test B flooded paddy test; conditions: Echinochloa crus-galli, 360 h, Flood, 250 g ai/ha; visually evaluated after 13 to 15 d; read-out: Plant response rating, Barnyardgrass (0 to 100 scale where 0 is no effect and 100 is complete control)
Outline: as §2

[18] = system: sedge, umbrella (small-flower umbrella sedge, Cyperus difformis); test: Test B flooded paddy test; conditions: Cyperus difformis, 360 h, Flood, 250 g ai/ha; visually evaluated after 13 to 15 d; read-out: Plant response rating, Sedge, Umbrella (0 to 100 scale where 0 is no effect and 100 is complete control)
Outline: as §2

CN1C[C@H](c2ccc(C(F)(F)F)cc2)[C@@H](C(=O)Nc2cccc(F)n2)C1=O [Compound 1400]
pest or weed control at 31 g/ha ([1]; 31 g ai/ha, 0 is no effect, 100 is complete control, read-out: Blackgrass plant response rating (0 to 100 scale)): 30%
pest or weed control at 125 g/ha ([1]; 125 g ai/ha, visual injury after approx. 10 d, 0 to 100 scale, 0 no effect, 100 complete control, read-out: Plant response rating, Blackgrass): 70%
pest or weed control at 31 g/ha ([2]; 31 g ai/ha, 0 is no effect, 100 is complete control, read-out: Foxtail, Giant plant response rating (0 to 100 scale)): 70%
pest or weed control at 125 g/ha ([2]; 125 g ai/ha, visual injury after approx. 10 d, 0 to 100 scale, 0 no effect, 100 complete control, read-out: Plant response rating, Foxtail, Giant): 90%
pest or weed control at 31 g/ha ([3]; 31 g ai/ha, 0 is no effect, 100 is complete control, read-out: Pigweed plant response rating (0 to 100 scale)): 50%
pest or weed control at 125 g/ha ([3]; 125 g ai/ha, visual injury after approx. 10 d, 0 to 100 scale, 0 no effect, 100 complete control, read-out: Plant response rating, Pigweed): 60%
pest or weed control at 31 g/ha ([4]; 31 g ai/ha, 0 is no effect, 100 is complete control, read-out: Galium plant response rating (0 to 100 scale)): 20%
pest or weed control at 125 g/ha ([4]; 125 g ai/ha, visual injury after approx. 10 d, 0 to 100 scale, 0 no effect, 100 complete control, read-out: Plant response rating, Galium): 70%
pest or weed control at 31 g/ha ([5]; 31 g ai/ha, 0 is no effect, 100 is complete control, read-out: Ryegrass, Italian plant response rating (0 to 100 scale)): 30%
pest or weed control at 125 g/ha ([5]; 125 g ai/ha, visual injury after approx. 10 d, 0 to 100 scale, 0 no effect, 100 complete control, read-out: Plant response rating, Ryegrass, Italian): 50%
pest or weed control at 31 g/ha ([6]; 31 g ai/ha, 0 is no effect, 100 is complete control, read-out: Barnyardgrass plant response rating (0 to 100 scale)): 70%
pest or weed control at 125 g/ha ([6]; 125 g ai/ha, visual injury after approx. 10 d, 0 to 100 scale, 0 no effect, 100 complete control, read-out: Plant response rating, Barnyardgrass): 90%
plant injury at 31 g/ha ([7]; 31 g ai/ha, 0 is no effect, 100 is complete control, read-out: Wheat plant response rating (0 to 100 scale)): 0%
plant injury at 125 g/ha ([7]; 125 g ai/ha, visual injury after approx. 10 d, 0 to 100 scale, 0 no effect, 100 complete control, read-out: Plant response rating, Wheat): 60%
pest or weed control at 31 g/ha (Kochia (Kochia scoparia) [8]; 31 g ai/ha, 0 is no effect, 100 is complete control, read-out: Kochia plant response rating (0 to 100 scale)): 30%
pest or weed control at 125 g/ha (Kochia (Kochia scoparia) [8]; 125 g ai/ha, visual injury after approx. 10 d, 0 to 100 scale, 0 no effect, 100 complete control, read-out: Plant response rating, Kochia): 70%
plant injury at 31 g/ha (corn (Zea mays); 31 g ai/ha, 0 is no effect, 100 is complete control, read-out: Corn plant response rating (0 to 100 scale)): 20%
Corn plant response rating (crop injury, 0 = no effect, 100 = complete kill) at 125 g/ha (corn (Zea mays); 125 g ai/ha, visual injury after approx. 10 d, 0 to 100 scale, 0 no effect, 100 complete control): 40%
pest or weed control at 31 g/ha ([9]; 31 g ai/ha, 0 is no effect, 100 is complete control, read-out: Ragweed plant response rating (0 to 100 scale)): 0%
pest or weed control at 125 g/ha ([9]; 125 g ai/ha, visual injury after approx. 10 d, 0 to 100 scale, 0 no effect, 100 complete control, read-out: Plant response rating, Ragweed): 50%
pest or weed control at 31 g/ha ([10]; 31 g ai/ha, 0 to 100 scale where 0 is no effect and 100 is complete control, read-out: Foxtail, Giant plant response rating): 90%
pest or weed control at 125 g/ha ([10]; 125 g ai/ha, 0 to 100 scale (0 no effect, 100 complete control), read-out: Plant response rating, Foxtail, Giant): 90%
pest or weed control at 31 g/ha ([11]; 31 g ai/ha, 0 to 100 scale where 0 is no effect and 100 is complete control, read-out: Pigweed plant response rating): 80%
pest or weed control at 125 g/ha ([11]; 125 g ai/ha, 0 to 100 scale (0 no effect, 100 complete control), read-out: Plant response rating, Pigweed): 80%
pest or weed control at 31 g/ha ([12]; 31 g ai/ha, 0 to 100 scale where 0 is no effect and 100 is complete control, read-out: Ryegrass, Italian plant response rating): 0%
pest or weed control at 125 g/ha ([12]; 125 g ai/ha, 0 to 100 scale (0 no effect, 100 complete control), read-out: Plant response rating, Ryegrass, Italian): 30%
pest or weed control at 31 g/ha ([13]; 31 g ai/ha, 0 to 100 scale where 0 is no effect and 100 is complete control, read-out: Barnyardgrass plant response rating): 90%
pest or weed control at 125 g/ha ([13]; 125 g ai/ha, 0 to 100 scale (0 no effect, 100 complete control), read-out: Plant response rating, Barnyardgrass): 90%
pest or weed control at 31 g/ha (Kochia (Kochia scoparia) [14]; 31 g ai/ha, 0 to 100 scale where 0 is no effect and 100 is complete control, read-out: Kochia plant response rating): 60%
pest or weed control at 125 g/ha (Kochia (Kochia scoparia) [14]; 125 g ai/ha, 0 to 100 scale (0 no effect, 100 complete control), read-out: Plant response rating, Kochia): 70%
pest or weed control at 31 g/ha ([15]; 31 g ai/ha, 0 to 100 scale where 0 is no effect and 100 is complete control, read-out: Ragweed plant response rating): 0%
pest or weed control at 125 g/ha ([15]; 125 g ai/ha, 0 to 100 scale (0 no effect, 100 complete control), read-out: Plant response rating, Ragweed): 70%
pest or weed control at 250 g/ha (rice (Oryra sativa)): 0%
pest or weed control at 250 g/ha [16]: 100%
pest or weed control at 250 g/ha [17]: 80%
pest or weed control at 250 g/ha [18]: 0%
